Measured values: patent publication US5077292A, “(2-imidazolin-2-ylamino) tetrahydroquinoxalines and methods for using same” (priority 1989, dated 1991)

Legend:
[1] = tested on: intraocular pressure; assay: effect on intraocular pressure, topical unilateral administration to rabbit eye; type: in vivo, New Zealand white rabbit; conditions: 0.1% (W/V); for Difference In Intraocular Pressure, Initial Effect On Treated Eye / Difference In Intraocular Pressure, Maximum Effect on Treated Eye / Difference In Intraocular Pressure, Maximum Effect On Untreated Eye: single 50 micro liter drop, N.S. = not statistically significant; for Difference In Intraocular Pressure, Maximum Effect On Untreated Eye: untreated (contralateral) eye; for effect on intraocular pressure in the treated eye (in words): treated rabbit eye
Procedure: The three (3) tetrahydroquinoxaline derivatives produced in accordance with Examples 1 to 3 were tested to determine what effect, if any, these materials have on intraocular pressure.
Each of these materials was dissolved in distilled water at a concentration of 0.1% (W/V). Each of these solutions was administered topically and unilaterally to one eye of a drug-naive, unanesthetized New Zealand white rabbit in a single 50 micro liter drop. The contralateral eye received an equal volume of saline prior to determining the intraocular pressure after the mixture was administered. Also, approximately 10 micro liters of 0.5% (W/V) proparacaine (topical anesthetic) was applied to the corneas of each of the rabbits before determining intraocular pressure. As a control test, six (6) other drug-naive, unanesthetized New Zealand white rabbits were treated and tested as described above except that no tetrahydroquinoxaline derivative was included in the solutions administered to the eyes.
The intraocular pressure was determined in both eyes of each rabbit before and after the solutions were administered. Such intraocular pressure determinations were made in the conventional manner using conventional equipment.

[2] = target: T1, Alpha 2 Adrenergic Receptors (Oryctolagus cuniculus, UniProt Q5ZQK3); assay: Rabbit Vas Deferens: Alpha 2 Adrenergic Receptors; type: cell-based, New Zealand white rabbit; conditions: 35° C., field stimulated, 50% reduction in response height, n = number of test runs
T1 construct: from tissue; host or cells: New Zealand white rabbit vas deferens, prostatic end, field stimulated
T1 sequence (Q5ZQK3 1-451): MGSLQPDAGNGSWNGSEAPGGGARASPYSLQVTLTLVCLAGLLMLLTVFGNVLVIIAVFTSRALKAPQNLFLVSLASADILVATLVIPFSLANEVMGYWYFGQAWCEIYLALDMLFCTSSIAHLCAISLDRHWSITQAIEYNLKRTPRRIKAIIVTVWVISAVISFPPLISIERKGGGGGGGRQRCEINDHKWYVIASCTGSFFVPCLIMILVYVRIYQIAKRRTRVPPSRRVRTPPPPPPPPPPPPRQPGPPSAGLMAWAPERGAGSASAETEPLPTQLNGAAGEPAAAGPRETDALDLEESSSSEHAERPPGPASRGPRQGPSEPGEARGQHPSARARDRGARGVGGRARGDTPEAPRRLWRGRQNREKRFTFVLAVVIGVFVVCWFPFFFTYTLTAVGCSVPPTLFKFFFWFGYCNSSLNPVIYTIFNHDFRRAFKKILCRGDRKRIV
Procedure: (§1) The tetrahydroquinoxalines produced in Examples 1 to 3 were tested for activity using the following in vitro methods.
Rabbit Vas Deferens: Alpha 2 Adrenergic Receptors
New Zealand white rabbits (2-3 kg) were killed by CO2 inhalation and the vasa deferentia removed. The prostatic ends of the vasa deferentia (2-3 cm lengths) were mounted between platinum ring electrodes in 9 ml organ baths and bathed in Krebs bicarbonate solution of the following composition (millimolar): NaCl 118.0; KCl 4.7; CaCl2 2.5; MgSO4 1.2; KH2 PO4 1.2; glucose 11.0; NaHCO3 25.0; which solution was maintained at 35° C. and bubbled with 95% O2 and 5% CO2. The initial tension of the vas deferens was 0.5 g. The tissues were left to equilibrate for 30 minutes before stimulation was started. Vasa were then field stimulated (0.1 Hz, 2 ms pulse width at 90 mA) using a square wave stimulator (WPI A310 Accupulser with A385 stimulus). […] Cumulative concentration-response curves were obtained for the tetrahydroquinoxaline being tested with a 4 minute contact time at each concentration. The reduction in response height was measured and expressed as a percentage of the height of the response before the addition of tetrahydroquinxoaline. Concentration response curves for each of tetrahydroquinoxalines were plotted. The effective concentration required for a 50% reduction in response height, expressed as EC50, were obtained from these curves and are set forth below.

[3] = tested on: Alpha 1 Adrenergic Receptors; assay: Rabbit Aorta: Alpha 1 Adrenergic Receptors; type: cell-based, albino rabbit; conditions: rabbit aorta rings, 37° C., field stimulated; n = number of test runs
Procedure: as §1
Rabbit Aorta: Alpha 1 Adrenergic Receptors
(§2) Thoracic aorta and saphenous vein specimens were obtained from albino rabbits that were killed by CO2 inhalation. The aorta and saphenous vein were each cut into 3 mm rings. Tissues were placed in Krebs-Hensleit solution of the following composition (millimolar): NaCl 119; KCl 4.7; MgSO4 1.5, KH2 PO4 1.2; CaCl2 2.5; NaHCO3 25 and glucose 11.0. The solution also contained cocaine (0.1 millimolar) to block neuronal uptake and EDTA (30 micromolar) and ascorbic acid (5 micromolar) to prevent oxidation of the tetrahydroquinoxaline being tested. Tissues were hung in 10 ml organ baths and tension was measured via Grass FT03 force-displacement transducers. Resting tension was 1 g and 2 g for the saphenous vein and aorta, respectively. The solution was gassed with 95% O2 and 5% CO2 and maintained at 37° C. Tissues were allowed to equilibrate for 2 hours before stimulation and the cumulative addition of the tetrahydroquinoxaline being treated was started. Tissue stimulation was performed as with the rabbit vas deferens, described above. The contractions of the tissue were recorded isometrically as for the rabbit vas deferens assay. Cumulative concentration response curves were obtained and the EC50 valve developed for each tetrahydroquinoxaline tested in a manner similar to that for the rabbit vas deferens assay.

[4] = tested on: Alpha 3 Adrenergic Receptors; assay: Rabbit Saphenous Vein: Alpha 3 Adrenergic Receptors; type: cell-based, albino rabbit; conditions: rabbit saphenous vein rings, 37° C., field stimulated; n = number of test runs
Procedure: as §1
Rabbit Saphenous Vein: Alpha 3 Adrenergic Receptors
as §2, with “Cumulative concentration response curves were obtained and the EC50 valve developed for each tetrahydroquinoxaline tested in a manner similar to that for the rabbit vas deferens assay.” left out

Compound	Difference In Intraocular Pressure, Initial Effect On Treated Eye [1]	Difference In Intraocular Pressure, Maximum Effect on Treated Eye [1] [%]	Difference In Intraocular Pressure, Maximum Effect On Untreated Eye [1]	effect on intraocular pressure in the treated eye (in words) [1]	effect on intraocular pressure in the untreated eye (in words) ([1]; untreated rabbit eye)	EC50 [2] [nM]	EC50 [3] [nM]	EC50 [4] [nM]
CC1CNc2c(ccc(NC3=NCCN3)c2Br)N1 (racemic) [Example 2, (±)2-Methyl-5-bromo-6-(2-imidazolin-2-ylamino)-1,2,3,4-tetrahydroquinoxaline]	N.S.	-15.1 ± 3.3	-8.6 ± 2.4%	effective to reduce intraocular pressure in the treated rabbit eye	reducing the intraocular pressure in the untreated rabbit eye	35.3 ± 3.9	6750 ± 116	581 ± 29
CC1CNc2ccc(NC3=NCCN3)c(Br)c2N1 (racemic) [Example 3, (±) 3-Methyl-5-bromo-6-(2-imidazolin-2-ylamino)-1,2,3,4-tetrahydroquinoxaline]	N.S.	-12.5 ± 2.2	N.S.	effective to reduce intraocular pressure in the treated rabbit eye	–	21.3 ± 3	1060 ± 271	–
Brc1c(NC2=NCCN2)ccc2c1NCCN2 [drawing 5]	+10.7 ± 3.6%	-16.0 ± 3.3	N.S.	–	–	–	–	–
